Reference: patent US20260285850A1, “SUBSTITUTED OXAZOLIDINONES AND IMIDAZOLINONES AS HERBICIDES” (FMC CORPORATION, priority 2023, published 2026)

Columns and labels:
Type in all cases: in vivo
[1] = system: blackgrass (Alopecurus myosuroides); test: Test A postemergence application, visual injury rating 0-100
Excerpt: (§1) Seeds of plant species selected from barnyardgrass (Echinochloa crus-galli), blackgrass (Alopecurus myosuroides), corn (Zea mays), foxtail, giant (giant foxtail, Setaria faberi), green foxtail (Setaria viridis), goosegrass (Eleusine indica), kochia (Bassia scoparia), oat, wild (wild oat, Avena fatua), palmer (palmer amaranth, palmer pigweed, Amaranthus palmeri), ragweed (common ragweed, Ambrosia artemisiifolia), ryegrass, Italian (italian ryegrass, Lolium multiflorum), soybean (Glycine max) and wheat (Triticum aestivum) were planted into a blend of loam soil and sand and treated preemergence with a directed soil spray using test chemicals formulated in a non-phytotoxic solvent mixture which included a surfactant.
(§2) At the same time, plants selected from these crops and weed species and also galium (catchweed bedstraw, Galium aparine) and horseweed (Erigeron canadensis) were planted in pots containing the same blend of loam soil and sand and treated with postemergence applications of test chemicals formulated in the same manner. Plants ranged in height from 2 to 10 cm and were in the one- to two-leaf stage for the postemergence treatment. Treated plants and untreated controls were maintained in a greenhouse for 10 days, after which time all treated plants were compared to untreated controls and visually evaluated for injury. Plant response ratings, summarized in Table A, are based on a 0 to 100 scale where 0 is no effect and 100 is complete control. A dash (-) response means no test result.

[2] = system: horseweed (Erigeron canadensis); test: as above
Excerpt: as §1, §2

[3] = system: wheat (Triticum aestivum); test: as above
Excerpt: as §1, §2

[4] = system: barnyardgrass (Echinochloa crus-galli); test: as above
Excerpt: as §1, §2

[5] = system: oat, wild (wild oat, Avena fatua); test: as above
Excerpt: as §1, §2

[6] = system: green foxtail (Setaria viridis); test: as above
Excerpt: as §1, §2

kochia (Bassia scoparia) [7] = test: as above
Excerpt: as §1, §2

[8] = system: ragweed (common ragweed, Ambrosia artemisiifolia); test: as above
Excerpt: as §1, §2

corn (Zea mays) [9] = test: as above
Excerpt: as §1, §2

[10] = system: palmer (palmer amaranth, palmer pigweed, Amaranthus palmeri); test: as above
Excerpt: as §1, §2

soybean (Glycine max) [11] = test: as above
Excerpt: as §1, §2

[12] = system: ryegrass, Italian (italian ryegrass, Lolium multiflorum); test: as above
Excerpt: as §1, §2

[13] = system: blackgrass (Alopecurus myosuroides); test: Test A preemergence soil spray, visual injury rating 0-100; details: 10 days
Procedure, shortened: (§3)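 Plants in a loam and sand soil blend were treated with each test chemical, in a non-phytotoxic solvent system including surfactant, either sprayed on seeded soil before emergence or applied after emergence at the one- to two-leaf stage. Ten days later in the greenhouse, plants were compared with untreated controls and visually rated from 0 (no effect) to 100 (complete control).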

[14] = system: wheat (Triticum aestivum); test: as above; details: 10 days
Procedure, shortened: as §3

[15] = system: barnyardgrass (Echinochloa crus-galli); test: as above; details: 10 days
Procedure, shortened: as §3

[16] = system: oat, wild (wild oat, Avena fatua); test: as above; details: 10 days
Procedure, shortened: as §3

[17] = system: green foxtail (Setaria viridis); test: as above; details: 10 days
Procedure, shortened: as §3

kochia (Bassia scoparia) [18] = test: as above; details: 10 days
Procedure, shortened: as §3

[19] = system: ragweed (common ragweed, Ambrosia artemisiifolia); test: as above; details: 10 days
Procedure, shortened: as §3

corn (Zea mays) [20] = test: as above; details: 10 days
Procedure, shortened: as §3

[21] = system: palmer (palmer amaranth, palmer pigweed, Amaranthus palmeri); test: as above; details: 10 days
Procedure, shortened: as §3

soybean (Glycine max) [22] = test: as above; details: 10 days
Procedure, shortened: as §3

[23] = system: ryegrass, Italian (italian ryegrass, Lolium multiflorum); test: as above; details: 10 days
Procedure, shortened: as §3

rice (Oryza sativa) = test: Test B flooded paddy test, visual plant response rating 0-100; details: 250 g ai/ha, Flood, applied to paddy water, evaluated after 13 days
Procedure, shortened: (§4)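 Plants were grown to the 2-leaf stage, then pots were flooded to 3 cm above the soil and compound was applied directly to the paddy water, with that depth kept throughout.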

[24] = system: barnyardgrass (Echinochloa crusgalli); test: as above; details: 250 g ai/ha, Flood, applied to paddy water, evaluated after 13 days
Procedure, shortened: as §4

[25] = system: ducksalad (Heteranthera limosa); test: as above; details: 250 g ai/ha, Flood, applied to paddy water, evaluated after 13 days
Procedure, shortened: as §4

[26] = system: sedge, umbrella (small-flower umbrella sedge, Cyperus difformis); test: as above; details: 250 g ai/ha, Flood, applied to paddy water, evaluated after 13 days
Procedure, shortened: as §4

[27] = 62 g ai/ha, postemergence, 10 days, 0 = no effect, 100 = complete control
[28] = Postemergence, 16 g ai/ha, greenhouse 10 days, 0 no effect, 100 complete control
[29] = 62 g ai/ha, 0 = no effect, 100 = complete control

With `CC1(C(=O)NC2CC=C(C(=O)O)C2)CN(c2cc(F)cc(Cl)c2)C(=O)O1` (centres unmarked) [Compound 159] the “Blackgrass plant response rating (0-100)” value [1, 27] was 90, the “Blackgrass plant response rating (0 to 100 scale)” value [1, 28] was 80 and the “Horseweed plant response rating (0-100)” value [2, 27] was 80. For the same compound, the “Horseweed plant response rating (0 to 100 scale)” value [2, 28] was 50, the “Wheat plant response rating (0-100)” value [3, 27] was 90 and the “Wheat plant response rating (0 to 100 scale)” value [3, 28] was 30. The “Barnyardgrass plant response rating (0-100)” value [4, 27] was 100, the “Barnyardgrass plant response rating (0 to 100 scale)” value [4, 28] was 100 and the “Oat, Wild plant response rating (0-100)” value [5, 27] was 30. The “Oat, Wild plant response rating (0 to 100 scale)” value [5, 28] was 30, the “Foxtail, Green plant response rating (0-100)” value [6, 27] was 90 and the “Foxtail, Green plant response rating (0 to 100 scale)” value [6, 28] was 70. For the same compound, the “Kochia plant response rating (0-100)” value (kochia (Bassia scoparia) [7]; [27]) was 80, the “Kochia plant response rating (0 to 100 scale)” value (kochia (Bassia scoparia) [7]; [28]) was 70 and the “Ragweed plant response rating (0-100)” value [8, 27] was 70. For the same compound, the “Ragweed plant response rating (0 to 100 scale)” value [8, 28] was 40, the “Corn plant response rating (0-100)” value (corn (Zea mays) [9]; [27]) was 100 and the “Corn plant response rating (0 to 100 scale)” value (corn (Zea mays) [9]; [28]) was 100. The “Pigweed, Palmer plant response rating (0-100)” value [10, 27] was 90, the “Pigweed, Palmer plant response rating (0 to 100 scale)” value [10, 28] was 80 and the “Soybean plant response rating (0-100)” value (soybean (Glycine max) [11]; [27]) was 80. The “Soybean plant response rating (0 to 100 scale)” value (soybean (Glycine max) [11]; [28]) was 80, the “Ryegrass, Italian plant response rating (0-100)” value [12, 27] was 100 and the “Ryegrass, Italian plant response rating (0 to 100 scale)” value [12, 28] was 60. For the same compound, the “Blackgrass plant response rating” value ([13]; 16 g ai/ha, 0 to 100 scale) was 0, the “Blackgrass plant response rating (0-100)” value [13, 29] was 0 and the “Wheat plant response rating” value ([14]; 16 g ai/ha, 0 to 100 scale) was 50. For the same compound, the “Wheat plant response rating (0-100)” value [14, 29] was 90, the “Barnyardgrass plant response rating” value ([15]; 16 g ai/ha, 0 to 100 scale) was 0 and the “Barnyardgrass plant response rating (0-100)” value [15, 29] was 80. For the same compound, the “Oat, Wild plant response rating” value ([16]; 16 g ai/ha, 0 to 100 scale) was 0, the “Oat, Wild plant response rating (0-100)” value [16, 29] was 20 and the “Foxtail, Green plant response rating” value ([17]; 16 g ai/ha, 0 to 100 scale) was 20. The “Foxtail, Green plant response rating (0-100)” value [17, 29] was 100, the “Kochia plant response rating” value (kochia (Bassia scoparia) [18]; 16 g ai/ha, 0 to 100 scale) was 0 and the “Kochia plant response rating (0-100)” value (kochia (Bassia scoparia) [18]; [29]) was 90. For the same compound, the “Ragweed plant response rating” value ([19]; 16 g ai/ha, 0 to 100 scale) was 0, the “Ragweed plant response rating (0-100)” value [19, 29] was 0 and the “Corn plant response rating” value (corn (Zea mays) [20]; 16 g ai/ha, 0 to 100 scale) was 20. For the same compound, the “Corn plant response rating (0-100)” value (corn (Zea mays) [20]; [29]) was 50, the “Pigweed, Palmer plant response rating” value ([21]; 16 g ai/ha, 0 to 100 scale) was 30 and the “Pigweed, Palmer plant response rating (0-100)” value [21, 29] was 100. The “Soybean plant response rating” value (soybean (Glycine max) [22]; 16 g ai/ha, 0 to 100 scale) was 0, the “Soybean plant response rating (0-100)” value (soybean (Glycine max) [22]; [29]) was 50 and the “Ryegrass, Italian plant response rating” value ([23]; 16 g ai/ha, 0 to 100 scale) was 30. The “Ryegrass, Italian plant response rating (0-100)” value [23, 29] was 90, the “Plant response rating, Rice (0 to 100 scale, 0 is no effect and 100 is complete control)” value (rice (Oryza sativa)) was 55 and the “Plant response rating, Barnyardgrass (0 to 100 scale, 0 is no effect and 100 is complete control)” value [24] was 95. The “Plant response rating, Ducksalad (0 to 100 scale, 0 is no effect and 100 is complete control)” value [25] was 100 and the “Plant response rating, Sedge, Umbrella (0 to 100 scale, 0 is no effect and 100 is complete control)” value [26] was 100.
